Bridge positions count the residues as written; N and C are the ends. Square brackets hold non-standard residues; d marks the D form. Peptide text beside a SMILES is read from it.
These compounds were tested on H1N1 A1/Malaysia/302/1954. Details: A1/Malaysia/302/1954, 48 h, 1 μM.

Structure (SMILES)	% Inhibition [%]
CC[C@@H](C)[C@H]1NC(=O)[C@H]2CCCN2C(=O)[C@@H]([C@H](C)O)NC(=O)[C@@H](Cc2ccccc2)NC(=O)[C@@H](Cc2c[nH]c3ccccc23)NC(=O)[C@@H](Cc2c[nH]c3ccccc23)NC(=O)[C@H](NC(=O)[C@H](CCCCN)NC(=O)[C@H](CCCCN)NC(=O)[C@H](CCCNC(=N)N)NC(=O)[C@@H](N)CCCNC(=N)N)CSSC[C@H](C(=O)O)NC(=O)[C@@H](C)NC1=O [PSP VII A13, H-RRKKcwwftpiac-OH] (H-RRKK[dC][dW][dW][dF][dT][dP][dI][dA][dC]-OH; disulfide 5-13)	41.9
CC[C@@H](C)[C@H]1NC(=O)CNC(=O)[C@@H]([C@H](C)O)NC(=O)[C@@H](Cc2ccccc2)NC(=O)[C@@H](Cc2c[nH]c3ccccc23)NC(=O)[C@@H](Cc2c[nH]c3ccccc23)NC(=O)[C@H](NC(=O)[C@H](CCCCN)NC(=O)[C@H](CCCCN)NC(=O)[C@H](CCCNC(=N)N)NC(=O)[C@@H](N)CCCNC(=N)N)CSSC[C@H](C(=O)O)NC(=O)[C@@H](C)NC1=O [PSP VII A5, H-RRKKcwwftGiac-OH] (H-RRKK[dC][dW][dW][dF][dT]G[dI][dA][dC]-OH; disulfide 5-13)	9.5
CC[C@@H](C)[C@H]1NC(=O)[C@@H](Cc2c[nH]cn2)NC(=O)[C@@H]([C@H](C)O)NC(=O)[C@@H](Cc2ccccc2)NC(=O)[C@@H](Cc2c[nH]c3ccccc23)NC(=O)[C@@H](Cc2c[nH]c3ccccc23)NC(=O)[C@H](NC(=O)[C@H](CCCCN)NC(=O)[C@H](CCCCN)NC(=O)[C@H](CCCNC(=N)N)NC(=O)[C@@H](N)CCCNC(=N)N)CSSC[C@H](C(=O)O)NC(=O)[C@@H](C)NC1=O [PSP VII A7, H-RRKKcwwfthiac-OH] (H-RRKK[dC][dW][dW][dF][dT][dH][dI][dA][dC]-OH; disulfide 5-13)	47.1
CC[C@@H](C)[C@H]1NC(=O)[C@@H](C)NC(=O)[C@@H]([C@H](C)O)NC(=O)[C@@H](Cc2ccccc2)NC(=O)[C@@H](Cc2c[nH]c3ccccc23)NC(=O)[C@@H](Cc2c[nH]c3ccccc23)NC(=O)[C@H](NC(=O)[C@H](CCCCN)NC(=O)[C@H](CCCCN)NC(=O)[C@H](CCCNC(=N)N)NC(=O)[C@@H](N)CCCNC(=N)N)CSSC[C@H](C(=O)O)NC(=O)[C@@H](C)NC1=O [PSP VII A1, H-RRKKcwwftaiac-OH] (H-RRKK[dC][dW][dW][dF][dT][dA][dI][dA][dC]-OH; disulfide 5-13)	25.2
CC[C@@H](C)[C@H]1NC(=O)[C@@H](CC(C)C)NC(=O)[C@@H]([C@H](C)O)NC(=O)[C@@H](Cc2ccccc2)NC(=O)[C@@H](Cc2c[nH]c3ccccc23)NC(=O)[C@@H](Cc2c[nH]c3ccccc23)NC(=O)[C@H](NC(=O)[C@H](CCCCN)NC(=O)[C@H](CCCCN)NC(=O)[C@H](CCCNC(=N)N)NC(=O)[C@@H](N)CCCNC(=N)N)CSSC[C@H](C(=O)O)NC(=O)[C@@H](C)NC1=O [PSP VII A10, H-RRKKcwwftliac-OH] (H-RRKK[dC][dW][dW][dF][dT][dL][dI][dA][dC]-OH; disulfide 5-13)	35.7
CC[C@@H](C)[C@H]1NC(=O)[C@@H]([C@H](C)O)NC(=O)[C@@H](Cc2ccccc2)NC(=O)[C@@H](Cc2c[nH]c3ccccc23)NC(=O)[C@@H](Cc2c[nH]c3ccccc23)NC(=O)[C@H](NC(=O)[C@H](CCCCN)NC(=O)[C@H](CCCCN)NC(=O)[C@H](CCCNC(=N)N)NC(=O)[C@@H](N)CCCNC(=N)N)CSSC[C@H](C(=O)O)NC(=O)[C@@H](C)NC(=O)[C@@H]([C@H](C)CC)NC1=O [PSP VII A8, H-RRKKcwwftiiac-OH] (H-RRKK[dC][dW][dW][dF][dT][dI][dI][dA][dC]-OH; disulfide 5-13)	84.8
CC[C@@H](C)[C@H]1NC(=O)[C@@H](CCSC)NC(=O)[C@@H]([C@H](C)O)NC(=O)[C@@H](Cc2ccccc2)NC(=O)[C@@H](Cc2c[nH]c3ccccc23)NC(=O)[C@@H](Cc2c[nH]c3ccccc23)NC(=O)[C@H](NC(=O)[C@H](CCCCN)NC(=O)[C@H](CCCCN)NC(=O)[C@H](CCCNC(=N)N)NC(=O)[C@@H](N)CCCNC(=N)N)CSSC[C@H](C(=O)O)NC(=O)[C@@H](C)NC1=O [PSP VII A11, H-RRKKcwwftmiac-OH] (H-RRKK[dC][dW][dW][dF][dT][dM][dI][dA][dC]-OH; disulfide 5-13)	9.8
CC[C@@H](C)[C@H]1NC(=O)[C@@H](CC(N)=O)NC(=O)[C@@H]([C@H](C)O)NC(=O)[C@@H](Cc2ccccc2)NC(=O)[C@@H](Cc2c[nH]c3ccccc23)NC(=O)[C@@H](Cc2c[nH]c3ccccc23)NC(=O)[C@H](NC(=O)[C@H](CCCCN)NC(=O)[C@H](CCCCN)NC(=O)[C@H](CCCNC(=N)N)NC(=O)[C@@H](N)CCCNC(=N)N)CSSC[C@H](C(=O)O)NC(=O)[C@@H](C)NC1=O [PSP VII A12, H-RRKKcwwftniac-OH] (H-RRKK[dC][dW][dW][dF][dT][dN][dI][dA][dC]-OH; disulfide 5-13)	55.2
CC[C@@H](C)[C@H]1NC(=O)[C@@H](CS)NC(=O)[C@@H]([C@H](C)O)NC(=O)[C@@H](Cc2ccccc2)NC(=O)[C@@H](Cc2c[nH]c3ccccc23)NC(=O)[C@@H](Cc2c[nH]c3ccccc23)NC(=O)[C@H](NC(=O)[C@H](CCCCN)NC(=O)[C@H](CCCCN)NC(=O)[C@H](CCCNC(=N)N)NC(=O)[C@@H](N)CCCNC(=N)N)CSSC[C@H](C(=O)O)NC(=O)[C@@H](C)NC1=O [PSP VII A2, H-RRKKcwwftciac-OH] (H-RRKK[dC][dW][dW][dF][dT][dC][dI][dA][dC]-OH; disulfide 5-13)	11.9
CC[C@@H](C)[C@H]1NC(=O)[C@@H](CCCNC(=N)N)NC(=O)[C@@H]([C@H](C)O)NC(=O)[C@@H](Cc2ccccc2)NC(=O)[C@@H](Cc2c[nH]c3ccccc23)NC(=O)[C@@H](Cc2c[nH]c3ccccc23)NC(=O)[C@H](NC(=O)[C@H](CCCCN)NC(=O)[C@H](CCCCN)NC(=O)[C@H](CCCNC(=N)N)NC(=O)[C@@H](N)CCCNC(=N)N)CSSC[C@H](C(=O)O)NC(=O)[C@@H](C)NC1=O [PSP VII A15, H-RRKKcwwftriac-OH] (H-RRKK[dC][dW][dW][dF][dT][dR][dI][dA][dC]-OH; disulfide 5-13)	39.1
CC[C@@H](C)[C@H]1NC(=O)[C@@H](CCC(N)=O)NC(=O)[C@@H]([C@H](C)O)NC(=O)[C@@H](Cc2ccccc2)NC(=O)[C@@H](Cc2c[nH]c3ccccc23)NC(=O)[C@@H](Cc2c[nH]c3ccccc23)NC(=O)[C@H](NC(=O)[C@H](CCCCN)NC(=O)[C@H](CCCCN)NC(=O)[C@H](CCCNC(=N)N)NC(=O)[C@@H](N)CCCNC(=N)N)CSSC[C@H](C(=O)O)NC(=O)[C@@H](C)NC1=O [PSP VII A14, H-RRKKcwwftqiac-OH] (H-RRKK[dC][dW][dW][dF][dT][dQ][dI][dA][dC]-OH; disulfide 5-13)	21.9
CC[C@@H](C)[C@H]1NC(=O)[C@@H](CCCCN)NC(=O)[C@@H]([C@H](C)O)NC(=O)[C@@H](Cc2ccccc2)NC(=O)[C@@H](Cc2c[nH]c3ccccc23)NC(=O)[C@@H](Cc2c[nH]c3ccccc23)NC(=O)[C@H](NC(=O)[C@H](CCCCN)NC(=O)[C@H](CCCCN)NC(=O)[C@H](CCCNC(=N)N)NC(=O)[C@@H](N)CCCNC(=N)N)CSSC[C@H](C(=O)O)NC(=O)[C@@H](C)NC1=O [PSP VII A9, H-RRKKcwwftkiac-OH] (H-RRKK[dC][dW][dW][dF][dT][dK][dI][dA][dC]-OH; disulfide 5-13)	17.4
CC[C@@H](C)[C@H]1NC(=O)[C@@H](CCC(=O)O)NC(=O)[C@@H]([C@H](C)O)NC(=O)[C@@H](Cc2ccccc2)NC(=O)[C@@H](Cc2c[nH]c3ccccc23)NC(=O)[C@@H](Cc2c[nH]c3ccccc23)NC(=O)[C@H](NC(=O)[C@H](CCCCN)NC(=O)[C@H](CCCCN)NC(=O)[C@H](CCCNC(=N)N)NC(=O)[C@@H](N)CCCNC(=N)N)CSSC[C@H](C(=O)O)NC(=O)[C@@H](C)NC1=O [PSP VII A4, H-RRKKcwwfteiac-OH] (H-RRKK[dC][dW][dW][dF][dT][dE][dI][dA][dC]-OH; disulfide 5-13)	3.8
CC[C@@H](C)[C@H]1NC(=O)[C@@H](CC(=O)O)NC(=O)[C@@H]([C@H](C)O)NC(=O)[C@@H](Cc2ccccc2)NC(=O)[C@@H](Cc2c[nH]c3ccccc23)NC(=O)[C@@H](Cc2c[nH]c3ccccc23)NC(=O)[C@H](NC(=O)[C@H](CCCCN)NC(=O)[C@H](CCCCN)NC(=O)[C@H](CCCNC(=N)N)NC(=O)[C@@H](N)CCCNC(=N)N)CSSC[C@H](C(=O)O)NC(=O)[C@@H](C)NC1=O [PSP VII A3, H-RRKKcwwftdiac-OH] (H-RRKK[dC][dW][dW][dF][dT][dD][dI][dA][dC]-OH; disulfide 5-13)	9.5

Same assay, conditions: A1/Malaysia/302/1954, 48 h, 500 μM

Structure (SMILES)	% inhibition H1N1 [%]
CC[C@@H](C)[C@H]1NC(=O)[C@@H](Cc2ccccc2)NC(=O)[C@@H](CCCNC(=N)N)NC(=O)[C@@H](CO)NC(=O)[C@@H](CS)NC(=O)[C@@H]([C@H](C)O)NC(=O)[C@H](NC(=O)[C@@H](CCCCN)NC(=O)[C@@H](CCCCN)NC(=O)[C@@H](CCCNC(=N)N)NC(=O)[C@H](N)CCCNC(=N)N)CSSC[C@H](C(=O)O)NC(=O)[C@@H](CC(N)=O)NC1=O [PSP II A2, H-rrkkctcsrfinc-OH] (H-[dR][dR][dK][dK][dC][dT][dC][dS][dR][dF][dI][dN][dC]-OH; disulfide 5-13)	1.7
CSCC[C@H]1NC(=O)[C@@H](Cc2ccccc2)NC(=O)[C@@H](CCCNC(=N)N)NC(=O)[C@@H](CO)NC(=O)[C@@H](CCCCN)NC(=O)[C@@H]([C@H](C)O)NC(=O)[C@H](N)CSSC[C@H](C(=O)O)NC(=O)[C@@H](CC(N)=O)NC1=O [PSP 11, H-ctksrfmnc-OH] (H-[dC][dT][dK][dS][dR][dF][dM][dN][dC]-OH; disulfide 1-9)	5.8

Each compound was assayed on H3N8 A/Miami/2/63. Details: A/Miami/2/63, 48 h, 500 μM.

Structure (SMILES)	% inhibition H3N8 [%]
CC[C@@H](C)[C@H]1NC(=O)[C@@H](Cc2ccccc2)NC(=O)[C@@H](CCCNC(=N)N)NC(=O)[C@@H](CO)NC(=O)[C@@H](CS)NC(=O)[C@@H]([C@H](C)O)NC(=O)[C@H](NC(=O)[C@@H](CCCCN)NC(=O)[C@@H](CCCCN)NC(=O)[C@@H](CCCNC(=N)N)NC(=O)[C@H](N)CCCNC(=N)N)CSSC[C@H](C(=O)O)NC(=O)[C@@H](CC(N)=O)NC1=O [PSP II A2, H-rrkkctcsrfinc-OH] (H-[dR][dR][dK][dK][dC][dT][dC][dS][dR][dF][dI][dN][dC]-OH; disulfide 5-13)	44.4
CSCC[C@H]1NC(=O)[C@@H](Cc2ccccc2)NC(=O)[C@@H](CCCNC(=N)N)NC(=O)[C@@H](CO)NC(=O)[C@@H](CCCCN)NC(=O)[C@@H]([C@H](C)O)NC(=O)[C@H](N)CSSC[C@H](C(=O)O)NC(=O)[C@@H](CC(N)=O)NC1=O [PSP 11, H-ctksrfmnc-OH] (H-[dC][dT][dK][dS][dR][dF][dM][dN][dC]-OH; disulfide 1-9)	67
